According to publication PMC9249726 (Clinical Pharmacokinetics, 2022):
Like-named read-outs stand apart in the source and are kept apart here.

Legend:
[1] = tested on: activated partial thromboplastin time (aPTT); experiment: Pharmacodynamic biomarker aPTT after single-dose milvexian 60 mg; format: in vivo, human; details: for Time at which mean aPTT returned to baseline: post-dose; for Maximal percentage increase from baseline in aPTT: single oral 60 mg
[2] = animal studies; no reference given; cited from earlier work
[3] = for increase in exposure, AUC(INF) / increase in exposure, Cmax: mild or moderate hepatic impairment compared with normal hepatic function
Plasma protein binding = format: in vitro ADME, human; details: for fraction unbound: human, plasma, oral, 60 mg, geometric mean (geometric CV)
[4] = milvexian 60 mg; ref previous studies; cited from earlier work
[5] = tested on: cytochrome P450 (CYP)-3A4; details: in words; no reference given; cited from earlier work
[6] = Safety and tolerability of single oral dose milvexian 60 mg; format: in vivo, human; details: single oral 60 mg, all groups, in words
[7] = cited from earlier work

C[C@@H]1CCC[C@H](n2cnc(-c3cc(Cl)ccc3-n3cc(Cl)nn3)cc2=O)c2cc(ccn2)-c2c(cnn2C(F)F)NC1=O [milvexian]
Time at which mean aPTT returned to baseline ([1]; mild hepatic impairment): ≤ 48 h
Maximal percentage increase from baseline in aPTT ([1]; mild hepatic impairment): approximately 90%
Time at which mean aPTT returned to baseline ([1]; moderate hepatic impairment): approximately 72 h
Maximal percentage increase from baseline in aPTT ([1]; moderate hepatic impairment): approximately 90%
Time at which mean aPTT returned to baseline ([1]; normal hepatic function): ≤ 48 h
increase in aPTT ([1]; participants with hepatic impairment (mild or moderate), single dose 60 mg): 90%
direct biliary excretion [2]: ~ 30 % of the dose
excretion through metabolism [2]: 40–50 % of the administered dose
variability in pharmacokinetics observed in this study ([3]; milvexian 60 mg, group with normal hepatic function): > 50%
increase in exposure, AUC(INF) ([3]; total milvexian): up to 18%
increase in exposure, Cmax ([3]; total milvexian): up to 18%
increase in exposure, AUC(INF) ([3]; unbound milvexian): up to 30%
increase in exposure, Cmax ([3]; unbound milvexian): up to 40%
fraction unbound (Plasma protein binding; mild hepatic impairment (n = 9)): 0.0852
fraction unbound (Plasma protein binding; moderate hepatic impairment (n = 8)): 0.0955
fraction unbound (Plasma protein binding; normal hepatic function (n = 9)): 0.0775
Plasma protein binding (Plasma protein binding; in words): moderate to high
geometric mean fraction of unbound milvexian (Plasma protein binding; mild hepatic impairment): 8.52%
geometric mean fraction of unbound milvexian (Plasma protein binding; moderate hepatic impairment): 9.55%
geometric mean fraction of unbound milvexian (Plasma protein binding; normal hepatic function): 7.75%
expected variability in pharmacokinetics [4]: ~ 20%
metabolising enzymes [5]: predominantly metabolized by cytochrome P450 (CYP)-3A4, with minor contributions from CYP3A5
bleeding AEs [6]: no bleeding AEs
deaths, SAEs, discontinuations due to AEs [6]: no serious adverse events (AEs), bleeding AEs, or discontinuations due to AEs
drug-induced liver injury [6]: no reports of drug-induced liver injury
deaths, SAEs, discontinuations due to AEs ([6]; listed as Milvexian): no deaths, SAEs, or treatment discontinuations due to AEs

O=C(NC[C@H]1CN(c2ccc(N3CCOCC3=O)cc2)C(=O)O1)c1ccc(Cl)s1 [rivaroxaban]
AUC increase in participants with moderate hepatic impairment ([7]; rivaroxaban 10 mg): 2.27 fold

COc1ccc(-n2nc(C(N)=O)c3c2C(=O)N(c2ccc(N4CCCCC4=O)cc2)CC3)cc1 [apixaban]
AUC increase in participants with moderate hepatic impairment ([7]; apixaban 5 mg): 1.09 fold
